Values belong to the molecule of their own block, whether it stands above or below them. Active and inactive are the calls of the source. The rule behind the calls is not given here.
Assays:
[1] = AUC (0 to 6 hrs) in CD1 mouse at 10 mg/kg, po; format: ADME, organism-based; design: time < 6 hr, route oral, dose 10 mg/kg; conditions: in vivo
[2] = molecular target: hERG (KCNH2) (Homo sapiens, UniProt Q12809); test: Inhibition of human ERG at 10 uM relative to control
[3] = tested on: Mus musculus; test: Induction of in-vivo cell differentiation in Crl:CD1-Foxn1nu mouse patient-derived xenograft model xenografted with human LU2514 assessed as reduction in nucleus to cytoplasm ratio at 10 mg/kg, po QD for 28 days and measured 15 days post last dose by H and E staining based assay; format: functional, organism-based; conditions: time 43.0 day
[4] = Protein binding in mouse plasma; format: ADME, cell-free; conditions: read-out: PPB (converted)
[5] = tested on: NCI-H1417; test: Antitumor activity against human NCI-H1417 cells xenografted in Crl:CD1-Foxn1nu mouse assessed as tumor growth regression level at 5 mg/kg, po QD for 65 days relative to control; format: functional; conditions: time 65 day
[6] = Antitumor activity against human LU2514 xenografted in Crl:CD1-Foxn1nu mouse patient-derived xenograft model assessed as inhibition of tumor growth at 5 mg/kg, po QD for 28 days relative to control; format: functional; conditions: 672 h, time 28 day, read-out: TGI
[7] = molecular target: T1, Lysine-specific histone demethylase 2 (Homo sapiens) (UniProt Q8NB78); test: Inhibition of LSD2 (unknown origin) at; conditions: dose microM <10
T1 sequence (whole entry): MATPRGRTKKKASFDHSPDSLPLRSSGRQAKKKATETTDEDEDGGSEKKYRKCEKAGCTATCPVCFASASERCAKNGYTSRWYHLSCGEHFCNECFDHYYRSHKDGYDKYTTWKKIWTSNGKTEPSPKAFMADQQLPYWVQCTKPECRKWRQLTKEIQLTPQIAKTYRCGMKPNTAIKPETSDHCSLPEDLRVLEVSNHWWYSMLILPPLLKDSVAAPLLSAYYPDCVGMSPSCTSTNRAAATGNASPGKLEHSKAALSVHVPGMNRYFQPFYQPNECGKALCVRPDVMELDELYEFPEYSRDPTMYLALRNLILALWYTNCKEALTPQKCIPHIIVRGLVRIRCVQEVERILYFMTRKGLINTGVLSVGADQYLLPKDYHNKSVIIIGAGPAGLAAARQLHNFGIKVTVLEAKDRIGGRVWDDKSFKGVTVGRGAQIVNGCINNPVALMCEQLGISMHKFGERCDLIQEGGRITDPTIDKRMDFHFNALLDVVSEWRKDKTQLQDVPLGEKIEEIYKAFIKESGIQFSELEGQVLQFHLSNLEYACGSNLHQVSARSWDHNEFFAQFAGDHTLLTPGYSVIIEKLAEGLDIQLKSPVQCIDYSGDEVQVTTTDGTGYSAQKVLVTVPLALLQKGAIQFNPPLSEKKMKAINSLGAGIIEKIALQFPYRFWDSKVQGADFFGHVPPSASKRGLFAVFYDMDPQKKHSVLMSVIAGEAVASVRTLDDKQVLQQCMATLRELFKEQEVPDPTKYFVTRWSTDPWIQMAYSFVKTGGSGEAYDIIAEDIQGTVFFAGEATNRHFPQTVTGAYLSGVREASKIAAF

[8] = AUC (0 to 24 hrs) in CD1 mouse at 5 mg/kg, po; format: ADME, organism-based; design: time < 24 hr, route oral, dose 5 mg/kg; conditions: in vivo
[9] = molecular target: T2, Amine oxidase [flavin-containing] A (Homo sapiens, UniProt P21397); test: Inhibition of MAOA (unknown origin) at; conditions: dose <10 µM
T2 sequence (P21397 whole entry): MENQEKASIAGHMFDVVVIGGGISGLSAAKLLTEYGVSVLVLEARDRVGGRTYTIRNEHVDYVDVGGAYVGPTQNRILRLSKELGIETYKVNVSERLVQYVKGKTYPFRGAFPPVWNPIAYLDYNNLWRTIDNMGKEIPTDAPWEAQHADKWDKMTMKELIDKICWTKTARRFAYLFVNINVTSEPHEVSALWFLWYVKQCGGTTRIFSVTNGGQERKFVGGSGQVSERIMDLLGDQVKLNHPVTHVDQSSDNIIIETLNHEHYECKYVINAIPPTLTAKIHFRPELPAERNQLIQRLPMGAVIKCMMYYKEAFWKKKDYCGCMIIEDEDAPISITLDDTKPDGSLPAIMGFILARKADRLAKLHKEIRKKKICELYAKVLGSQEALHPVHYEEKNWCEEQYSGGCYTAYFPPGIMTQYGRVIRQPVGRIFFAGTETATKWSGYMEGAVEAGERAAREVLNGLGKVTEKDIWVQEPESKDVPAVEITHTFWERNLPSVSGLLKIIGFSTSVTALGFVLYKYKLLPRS

[10] = tested on: IMR-90; test: Anti-proliferative activity in human IMR-90 cells incubated for 168 hrs by MTS assay; format: functional, cell-based; conditions: IMR-90, 168 h
[11] = tested on: NCI-H1417; test: Antitumor activity against human NCI-H1417 cells xenografted in Crl:CD1-Foxn1nu mouse assessed as tumor growth regression level at 2.5 mg/kg, po QD for 65 days relative to control; format: functional; conditions: time 65 day
[12] = Cmax in CD1 mouse at 5 mg/kg, po; format: ADME, organism-based; design: route oral, dose 5 mg/kg; conditions: in vivo
[13] = tested on: Kasumi 1; test: Anti-proliferative activity in human Kasumi 1 cells incubated for 168 hrs by MTS assay; format: functional, cell-based; conditions: Kasumi 1, 168 h
[14] = tested on: Mus musculus; test: Inhibition of GRP mRNA expression in Crl:CD1-Foxn1nu mouse xenografted with human NCI-H1417 cells at 2.5 mg/kg, po QD for 4 days and measured 24 hrs post last dose by qPCR analysis; format: functional, organism-based; conditions: time 5.0 day
[15] = Toxicity in Crl:CD1-Foxn1nu mouse xenografted with human NCI-H1417 cells assessed as weight gain level at 2.5 to 5 mg/kg, po QD for 65 days relative to control; format: organism-based; conditions: in vivo, 1560 h, dose 2.5-5 mg/kg, time 65 day
[16] = tested on: Mus musculus; test: Induction of in-vivo cell differentiation in Crl:CD1-Foxn1nu mouse patient-derived xenograft model xenografted with human LU2514 assessed as increase in apoptotic bodies at 10 mg/kg, po QD for 28 days and measured 15 days post last dose by H and E staining based assay; format: functional, organism-based; conditions: time 43.0 day
[17] = tested on: Mus musculus; test: Inhibition of GRP mRNA expression in Crl:CD1-Foxn1nu mouse xenografted with human NCI-H1417 cells at 5 mg/kg, po QD for 4 days and measured 24 hrs post last dose by qPCR analysis; format: functional, organism-based; conditions: time 5.0 day
[18] = Half life in CD1 mouse at 5 mg/kg, iv; format: ADME, organism-based; conditions: in vivo
[19] = Antitumor activity against human LU2514 xenografted in Crl:CD1-Foxn1nu mouse patient-derived xenograft model assessed as inhibition of tumor growth at 10 mg/kg, po QD for 28 days relative to control; format: functional; conditions: 672 h, time 28 day, read-out: TGI
[20] = Clearance in CD1 mouse at 5 mg/kg, iv; format: ADME, organism-based; conditions: in vivo
[21] = Oral bioavailability in CD1 mouse at 5 mg/kg; format: ADME, organism-based; conditions: in vivo
[22] = Antitumor activity against human LXFS615 xenografted in Crl:CD1-Foxn1nu mouse patient-derived xenograft model assessed as inhibition of tumor growth at 5 mg/kg, po dosed daily for 30 days relative to control; format: functional; conditions: 720 h, time 30 day, read-out: TGI
[23] = molecular target: T3, Amine oxidase [flavin-containing] B (Homo sapiens, UniProt P27338); test: Inhibition of MAOB (unknown origin) at; conditions: dose <10 µM
T3 sequence (P27338 whole entry): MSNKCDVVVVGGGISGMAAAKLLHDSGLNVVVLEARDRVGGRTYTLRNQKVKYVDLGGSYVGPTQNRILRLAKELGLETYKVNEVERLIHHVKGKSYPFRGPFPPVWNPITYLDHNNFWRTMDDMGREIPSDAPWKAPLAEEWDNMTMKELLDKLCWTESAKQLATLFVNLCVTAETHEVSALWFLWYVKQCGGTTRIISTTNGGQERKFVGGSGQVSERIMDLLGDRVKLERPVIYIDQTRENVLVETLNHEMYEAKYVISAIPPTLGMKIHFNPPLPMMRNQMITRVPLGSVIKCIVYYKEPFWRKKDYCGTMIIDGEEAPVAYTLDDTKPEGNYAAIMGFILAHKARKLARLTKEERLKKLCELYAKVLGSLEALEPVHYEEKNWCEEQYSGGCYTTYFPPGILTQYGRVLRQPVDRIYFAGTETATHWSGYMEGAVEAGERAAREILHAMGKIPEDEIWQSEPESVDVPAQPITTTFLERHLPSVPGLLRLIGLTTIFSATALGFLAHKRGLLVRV

[24] = Toxicity in Crl:CD1-Foxn1nu mouse xenografted with human LXFS615 cells assessed as weight loss at 5 mg/kg, po dosed daily for 30 days relative to control; format: organism-based; conditions: in vivo, 720 h, time 30 day
[25] = tested on: Mus musculus; test: Induction of in-vivo cell differentiation in Crl:CD1-Foxn1nu mouse patient-derived xenograft model xenografted with human LU2514 assessed as loosening of cellular structure at 10 mg/kg, po QD for 28 days and measured 15 days post last dose by H and E staining based assay; format: functional, organism-based; conditions: time 43.0 day
[26] = Volume of distribution at steady state in CD1 mouse at 5 mg/kg, iv; format: ADME, organism-based; conditions: in vivo, read-out: Vdss

hERG (KCNH2), sequence (Q12809 whole entry): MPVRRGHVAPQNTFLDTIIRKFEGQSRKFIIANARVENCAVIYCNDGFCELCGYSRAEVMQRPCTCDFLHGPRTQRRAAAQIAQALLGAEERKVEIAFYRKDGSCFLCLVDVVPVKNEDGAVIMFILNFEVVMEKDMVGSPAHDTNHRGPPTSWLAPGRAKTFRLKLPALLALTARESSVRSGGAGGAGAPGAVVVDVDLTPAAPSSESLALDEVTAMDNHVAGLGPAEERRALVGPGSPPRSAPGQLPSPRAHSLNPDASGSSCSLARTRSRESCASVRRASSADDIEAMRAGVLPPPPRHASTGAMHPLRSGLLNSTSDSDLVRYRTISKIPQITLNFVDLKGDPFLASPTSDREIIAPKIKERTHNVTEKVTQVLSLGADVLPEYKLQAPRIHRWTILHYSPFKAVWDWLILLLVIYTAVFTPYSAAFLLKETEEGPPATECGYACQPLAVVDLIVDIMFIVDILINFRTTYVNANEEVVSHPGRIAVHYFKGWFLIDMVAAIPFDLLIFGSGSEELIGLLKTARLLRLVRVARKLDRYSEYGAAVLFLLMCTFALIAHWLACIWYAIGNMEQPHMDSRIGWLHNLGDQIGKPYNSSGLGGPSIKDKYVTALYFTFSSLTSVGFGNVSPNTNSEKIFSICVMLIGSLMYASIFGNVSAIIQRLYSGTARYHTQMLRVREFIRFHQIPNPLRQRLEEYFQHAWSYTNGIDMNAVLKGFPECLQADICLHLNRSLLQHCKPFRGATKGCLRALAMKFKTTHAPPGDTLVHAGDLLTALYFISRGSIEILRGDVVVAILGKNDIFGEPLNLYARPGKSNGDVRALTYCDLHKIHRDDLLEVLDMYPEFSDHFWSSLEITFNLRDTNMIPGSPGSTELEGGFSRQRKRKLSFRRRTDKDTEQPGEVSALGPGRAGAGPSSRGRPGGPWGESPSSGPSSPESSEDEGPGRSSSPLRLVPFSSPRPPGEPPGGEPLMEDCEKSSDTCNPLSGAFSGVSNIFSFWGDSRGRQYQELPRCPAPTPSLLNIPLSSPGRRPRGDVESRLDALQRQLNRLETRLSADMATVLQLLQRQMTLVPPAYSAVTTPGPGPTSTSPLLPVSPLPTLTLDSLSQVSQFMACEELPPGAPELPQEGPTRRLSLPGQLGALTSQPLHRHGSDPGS

Compound: COc1ccc(-c2c(-c3ccc(C#N)cc3)nc(N3CCC(N)CC3)n(C)c2=O)cc1
AUC(0-t) at 6 h [1]: 6.1 µM·h | inhibition at 10 µM [2]: 67%

Compound: Cc1ccc(-c2cnc(N3CC[C@@H]4NCC[C@@H]4C3)nc2-c2ccc(C#N)cc2)cc1
AUC(0-t) at 6 h [1]: 14.5 µM·h | inhibition at 10 µM [2]: 95%

Compound: Cc1ccc(-c2c(-c3ccc(C#N)cc3)nc(N3CCC(N)CC3)c(=O)n2C)cc1
AUC(0-t) at 6 h [1]: 7.3 µM·h | inhibition at 10 µM [2]: 95%

Compound: COc1ccc(-c2c(-c3ccc(C#N)c(F)c3)nc(N3CCC(N)CC3)n(C)c2=O)cc1F.O=S(=O)(O)c1ccccc1 [PULRODEMSTAT BESILATE]
Activity [3]: Active | fraction unbound [4]: 0.08 | Activity [5]: 178% | inhibition in vivo at 5 mg/kg [6]: 39% | inhibition [7]: inactive | AUC(0-t) at 24 h [8]: 1.8 µM·h | inhibition (INH) [9]: Not Active | AUC(0-t) at 6 h [1]: 2.6 µM·h | EC50 [10]: > 10000 nM | Activity [11]: 159% | Cmax [12]: 360 nM | EC50 [13]: 2 nM | inhibition [14]: Active | Activity [15]: <= 7% | Activity [16]: Active | inhibition [17]: Active | half-life [18]: 2 h | inhibition in vivo at 10 mg/kg [19]: 56% | clearance [20]: 32.4 mL/min/kg | bioavailability [21]: 32% | inhibition in vivo at 5 mg/kg [22]: 78% | inhibition (INH) [23]: Not Active | inhibition at 10 µM [2]: 59% | Activity [24]: < 1% | Activity [25]: Active | Vd [26]: 7.5 L/kg

The next lines start with results.

AUC(0-t) at 6 h [1]: 10.5 µM·h
Compound: Cc1ccc(-c2c(-c3ccc(C#N)cc3)nc(N3CCC(N)CC3)n(C)c2=O)cc1
inhibition at 10 µM [2]: 83%

AUC(0-t) at 6 h [1]: 3 µM·h
Compound: COc1ccc(-c2c(-c3ccc(C#N)cc3)nc(N3CCC(N)CC3)n(C)c2=O)cc1F
inhibition at 10 µM [2]: 48%

AUC(0-t) at 6 h [1]: 1 µM·h
Compound: Cc1ccc(-c2cnc(C[C@H]3CCNC3)nc2-c2ccc(C#N)cc2)cc1
inhibition at 10 µM [2]: 91%
